Data: patent US20140039803A1, “Method for Rapid Identification of Drug Targets and Drug Mechanisms of Action in Human Cells” (THE ROCKEFELLER UNIVERSITY, priority 2011, published 2014)
Values joined by “and” are separate entries in the source; they are usually repeats but may differ in a detail not shown here. Equal entries are not always repeated. Where two headings read alike, the source gives them in different places.

Experiments:
related motor proteins = conditions: in vitro; cited from earlier work
[1] = tested on: BI-2536-resistant clones of HCT-116 cells; assay: Cell proliferation assay (WST1), LD50; type: cell-based, human
HCT-116 cells (parental) = assay: Cell proliferation assay (WST1), LD50; type: cell-based, human
[2] = tested on: hTERT-RPE1 cells stably expressing GFP-PSMB5 wild type or mutants; assay: Proliferation assay, bortezomib treatment; type: cell-based, human; conditions: stable expression of GFP-tagged PSMB5 mutants
[3] = tested on: bortezomib-resistant clones of HCT-116 cells; conditions: for LD50: Table 4, mean ± s.e.m., n = 3
HCT-116 cells = assay: Spindle phenotype with BI-2536 treatment; type: cell-based, human
[4] = tested on: BI-2536-resistant clones of HCT-116 cells; assay: Spindle phenotype with BI-2536 treatment; type: cell-based, human
PLK2 = PLK2 (Homo sapiens, UniProt Q9NYY3); conditions: cited from earlier work
PLK3 = PLK3 (Homo sapiens, UniProt Q9H4B4); conditions: cited from earlier work
PLK3, sequence (Q9H4B4 whole entry): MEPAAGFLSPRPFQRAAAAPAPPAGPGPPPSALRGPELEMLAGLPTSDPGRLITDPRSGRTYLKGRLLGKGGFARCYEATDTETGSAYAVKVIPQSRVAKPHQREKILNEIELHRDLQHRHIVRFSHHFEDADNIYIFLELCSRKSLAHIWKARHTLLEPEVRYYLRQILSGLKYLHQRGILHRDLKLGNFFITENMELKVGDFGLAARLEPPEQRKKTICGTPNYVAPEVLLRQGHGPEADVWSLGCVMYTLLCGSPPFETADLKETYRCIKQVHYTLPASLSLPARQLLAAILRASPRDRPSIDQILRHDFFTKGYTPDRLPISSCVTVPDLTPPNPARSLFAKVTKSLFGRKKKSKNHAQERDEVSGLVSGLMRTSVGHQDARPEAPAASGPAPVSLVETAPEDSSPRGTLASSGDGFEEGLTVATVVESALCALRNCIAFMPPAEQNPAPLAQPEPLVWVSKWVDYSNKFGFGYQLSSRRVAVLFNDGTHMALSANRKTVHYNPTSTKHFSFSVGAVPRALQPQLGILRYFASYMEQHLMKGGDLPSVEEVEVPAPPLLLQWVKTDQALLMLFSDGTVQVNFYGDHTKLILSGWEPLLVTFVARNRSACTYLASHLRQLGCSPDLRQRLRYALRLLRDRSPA

PLK2, sequence (Q9NYY3 whole entry, species assumed): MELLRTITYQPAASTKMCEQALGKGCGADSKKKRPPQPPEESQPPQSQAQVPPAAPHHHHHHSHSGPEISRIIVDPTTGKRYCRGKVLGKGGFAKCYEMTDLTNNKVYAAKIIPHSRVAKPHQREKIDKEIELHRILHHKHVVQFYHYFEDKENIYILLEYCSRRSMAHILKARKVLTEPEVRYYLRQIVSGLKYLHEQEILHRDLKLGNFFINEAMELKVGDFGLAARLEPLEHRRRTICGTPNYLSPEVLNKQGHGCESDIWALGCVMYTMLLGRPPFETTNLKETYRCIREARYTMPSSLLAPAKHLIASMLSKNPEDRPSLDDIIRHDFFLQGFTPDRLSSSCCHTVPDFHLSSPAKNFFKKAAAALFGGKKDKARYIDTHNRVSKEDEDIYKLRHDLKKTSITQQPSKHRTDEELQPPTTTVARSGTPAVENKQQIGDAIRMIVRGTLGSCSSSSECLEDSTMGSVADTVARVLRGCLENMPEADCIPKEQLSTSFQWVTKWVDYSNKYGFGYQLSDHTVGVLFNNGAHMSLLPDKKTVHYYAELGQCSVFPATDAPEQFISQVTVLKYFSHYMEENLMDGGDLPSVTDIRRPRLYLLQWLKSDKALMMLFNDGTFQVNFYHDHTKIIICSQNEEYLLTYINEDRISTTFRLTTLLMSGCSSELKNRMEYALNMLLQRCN

In the case of `N[C@@H](CSC(c1ccccc1)(c1ccccc1)c1ccccc1)C(=O)O` [STLC, S-trityl-L-cysteine], the “selectivity over related motor proteins” value (related motor proteins) is listed as “selective”.
For `CC(=O)O[C@H]1C(=O)[C@@]2(C)[C@H]([C@H](OC(=O)c3ccccc3)[C@]3(O)C[C@H](OC(=O)[C@H](O)[C@@H](NC(=O)c4ccccc4)c4ccccc4)C(C)=C1C3(C)C)[C@]1(OC(C)=O)CO[C@@H]1C[C@@H]2O` [taxol], the “sensitivity of clones compared with parental cell line” value ([1]; Example 1: clones A, B and C) was “less sensitive than the parental cell line” and the “sensitivity of clones compared with parental cell line” value ([1]; Example 2: clones D, E and F, 20 nM (FIG. 11)) was “less sensitive than the parental cell line”.
In the case of `c1ccc(C2(c3nc(-c4ccncc4)cs3)CC2)cc1` [PCTP, 4-(2-(1-phenylcyclopropyl)thiazol-4-yl)pyridine], the “selectivity over related motor proteins” value (related motor proteins) is given as “inhibit other related motor proteins”.
For `CC(C)C[C@H](NC(=O)[C@H](Cc1ccccc1)NC(=O)c1cnccn1)B(O)O` [bortezomib], the LD50 (HCT-116 cells (parental); Example 3, Table 4, parental HCT-116, mean ± s.e.m., n = 3) was 6.3 ± 0.9 nM, the LD50 (HCT-116 cells (parental); HCT-116 cells, text of Example 3) was 6.3±0.9 nm and the “effect of expression of PSMB5 M104V or A108T on bortezomib sensitivity” value [2] was “suppressed bortezomib sensitivity”. The LD50 ([3]; clone A) was 19.4 ± 6.7 nM, the LD50 ([3]; clone B) was 15.3 ± 6.2 nM and the LD50 ([3]; clone C) was 17.8 ± 6.0 nM. The LD50 ([3]; clone D) was 17.2 ± 5.4 nM, the LD50 ([3]; clone E) was 41.5 ± 9.5 nM and the “LD50 of resistant clones relative to parental cell line” value ([3]; five clones with reduced bortezomib sensitivity, fold higher) was 2.4-6.5 fold.
For `CC[C@@H]1C(=O)N(C)c2cnc(Nc3ccc(C(=O)NC4CCN(C)CC4)cc3OC)nc2N1C1CCCC1` [BI-2536], the LD50 (HCT-116 cells (parental); Example 1, Table 1, parental HCT-116, mean ± s.d.) was 3.9 nM and 3.9 ± 1.0 nM, the LD50 (HCT-116 cells (parental); Example 2, Table 3, parental HCT-116, n = 3, mean ± s.d.) was 3.9 nM and 3.9 ± 2.8 nM and the LD50 ([1]; Example 1, Table 1, clone A, mean ± s.d.) was 24.7 ± 5.9 nM. The LD50 ([1]; Example 1, Table 1, clone B, mean ± s.d.) was 22.9 ± 5.3 nM, the LD50 ([1]; Example 1, Table 1, clone C, mean ± s.d.) was 12.6 ± 2.6 nM and the LD50 ([1]; Example 1, Table 1, clone D, mean ± s.d.) was 27.6 ± 2.4 nM. It also gave an LD50 ([1]; Example 1, Table 1, clone E, mean ± s.d.) of 35.9 ± 9.9 nM, an LD50 ([1]; Example 1, Table 1, clone F, mean ± s.d.) of 33.4 ± 7.5 nM and an LD50 ([1]; Example 2, Table 3, clone A, n = 3, mean ± s.d.) of 34.9 ± 13.0 nM. For the same compound, the LD50 ([1]; Example 2, Table 3, clone B, n = 3, mean ± s.d.) was 33.5 ± 2.6 nM, the LD50 ([1]; Example 2, Table 3, clone C, n = 3, mean ± s.d.) was 27.2 ± 8.6 nM and the LD50 ([1]; Example 2, Table 3, clone D, n = 3, mean ± s.d.) was 14.2 ± 7.8 nM. The LD50 ([1]; Example 2, Table 3, clone E, n = 3, mean ± s.d.) was 21.1 ± 5.7 nM, the LD50 ([1]; Example 2, Table 3, clone F, n = 3, mean ± s.d.) was 27.5 ± 13.3 nM and the normal bipolar spindles (HCT-116 cells) was 11±3%. The bipolar spindles ([4]; BI-2536 treatment, drug-resistant clone B) was 46±4%, the “reduction in bipolar spindles associated with BI-2536 treatment” value ([4]; Example 1: clones A, B and C) was “suppressed” and the activity in vitro (PLK2) was “active”. For the same compound, the activity in vitro (PLK3) was “active”.
